Experimental data from the supplement of paper PMC10307832.

How the values were obtained:
Test in all cases: relative viability (nuclei count vs DMSO), 5 days (fraction); higher = more cells survive
[1] = test system: NCI-H838
Procedure, shortened: (§1)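 Values are medians from duplicate plates. Each reflects relative viability, defined as the nuclei count of treated wells over that of vehicle wells. Lung cancer cell lines in 1536-well plates were pin-tool dosed one day after seeding with one drug alone or with a fixed anchor-drug dose plus five library-drug doses (not always all listed) in √10 steps, then fixed, stained and imaged at 4× after 5 days.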

[2] = test system: NCI-H520
Procedure, shortened: as §1

[3] = test system: H3255
Procedure, shortened: as §1

[4] = test system: NCI-H2405
Procedure, shortened: as §1

[5] = test system: EPLC-272H
Procedure, shortened: as §1

[6] = test system: HCC-827
Procedure, shortened: as §1

[7] = test system: NCI-H1395
Procedure, shortened: as §1

[8] = test system: NCI-H2087
Procedure, shortened: as §1

[9] = test system: NCI-H1651
Procedure, shortened: as §1

[10] = test system: EMC-BAC-2
Procedure, shortened: as §1

[11] = test system: NCI-H2085
Procedure, shortened: as §1

[12] = test system: NCI-H1793
Procedure, shortened: as §1

[13] = test system: LCLC-103H
Procedure, shortened: as §1

[14] = test system: SK-MES-1
Procedure, shortened: as §1

[15] = test system: NCI-H650
Procedure, shortened: as §1

[16] = test system: NCI-H1944
Procedure, shortened: as §1

[17] = test system: ChaGo-K-1
Procedure, shortened: as §1

[18] = test system: LU99A
Procedure, shortened: as §1

[19] = test system: HCC-44
Procedure, shortened: as §1

[20] = test system: NCI-H2023
Procedure, shortened: as §1

[21] = test system: COR-L23
Procedure, shortened: as §1

O=c1cc(N2CCOCC2)oc2c(-c3cccc4c3sc3ccccc34)cccc12 + Nc1ncn([C@H]2C[C@H](O)[C@@H](CO)O2)c(=O)n1 [Decitabine] (partner 2 µM)
relative viability ([1]; first compound 0.01 µM): 0.481 | relative viability ([1]; first compound 0.03162 µM): 0.49 | relative viability ([1]; first compound 0.1 µM): 0.479 | relative viability ([1]; first compound 0.3162 µM): 0.482 | relative viability ([1]; first compound 1 µM): 0.478 | relative viability ([2]; first compound 0.01 µM): 0.59 | relative viability ([2]; first compound 0.03162 µM): 0.565 | relative viability ([2]; first compound 0.1 µM): 0.529 | relative viability ([2]; first compound 0.3162 µM): 0.557 | relative viability ([2]; first compound 1 µM): 0.525 | relative viability ([3]; first compound 0.01 µM): 0.598 | relative viability ([3]; first compound 0.03162 µM): 0.715 | relative viability ([3]; first compound 0.1 µM): 0.56 | relative viability ([3]; first compound 0.3162 µM): 0.604 | relative viability ([3]; first compound 1 µM): 0.533 | relative viability ([4]; first compound 0.01 µM): 0.82 | relative viability ([4]; first compound 0.03162 µM): 0.715 | relative viability ([4]; first compound 0.1 µM): 0.812 | relative viability ([4]; first compound 0.3162 µM): 0.76 | relative viability ([4]; first compound 1 µM): 0.788 | relative viability ([5]; first compound 0.01 µM): 0.392 | relative viability ([5]; first compound 0.03162 µM): 0.398 | relative viability ([5]; first compound 0.1 µM): 0.329 | relative viability ([5]; first compound 0.3162 µM): 0.359 | relative viability ([5]; first compound 1 µM): 0.376 | relative viability ([6]; first compound 0.01 µM): 0.291 | relative viability ([6]; first compound 0.03162 µM): 0.329 | relative viability ([6]; first compound 0.1 µM): 0.296 | relative viability ([6]; first compound 0.3162 µM): 0.314 | relative viability ([6]; first compound 1 µM): 0.161 | relative viability ([7]; first compound 0.03162 µM): 0.772 | relative viability ([7]; first compound 0.1 µM): 0.656 | relative viability ([7]; first compound 0.3162 µM): 0.701 | relative viability ([7]; first compound 1 µM): 0.692 | relative viability ([8]; first compound 0.01 µM): 0.261 | relative viability ([8]; first compound 0.03162 µM): 0.257 | relative viability ([8]; first compound 0.1 µM): 0.336 | relative viability ([8]; first compound 0.3162 µM): 0.306 | relative viability ([8]; first compound 1 µM): 0.297 | relative viability ([9]; first compound 0.01 µM): 0.563 | relative viability ([9]; first compound 0.03162 µM): 0.615 | relative viability ([9]; first compound 0.1 µM): 0.593 | relative viability ([9]; first compound 0.3162 µM): 0.642 | relative viability ([9]; first compound 1 µM): 0.61 | relative viability ([10]; first compound 0.01 µM): 1.05 | relative viability ([10]; first compound 0.03162 µM): 1.02 | relative viability ([10]; first compound 0.1 µM): 1.01 | relative viability ([10]; first compound 0.3162 µM): 0.93 | relative viability ([10]; first compound 1 µM): 0.95 | relative viability ([11]; first compound 0.01 µM): 0.591 | relative viability ([11]; first compound 0.03162 µM): 0.519 | relative viability ([11]; first compound 0.1 µM): 0.526 | relative viability ([11]; first compound 0.3162 µM): 0.614 | relative viability ([11]; first compound 1 µM): 0.502 | relative viability ([12]; first compound 0.01 µM): 0.503 | relative viability ([12]; first compound 0.03162 µM): 0.502 | relative viability ([12]; first compound 0.1 µM): 0.564 | relative viability ([12]; first compound 0.3162 µM): 0.54 | relative viability ([12]; first compound 1 µM): 0.443 | relative viability ([13]; first compound 0.01 µM): 0.807 | relative viability ([13]; first compound 0.03162 µM): 0.763 | relative viability ([13]; first compound 0.1 µM): 0.766 | relative viability ([13]; first compound 0.3162 µM): 0.77 | relative viability ([13]; first compound 1 µM): 0.686 | relative viability ([14]; first compound 0.01 µM): 0.419 | relative viability ([14]; first compound 0.03162 µM): 0.43 | relative viability ([14]; first compound 0.1 µM): 0.366 | relative viability ([14]; first compound 0.3162 µM): 0.351 | relative viability ([14]; first compound 1 µM): 0.365 | relative viability ([15]; first compound 0.01 µM): 0.319 | relative viability ([15]; first compound 0.03162 µM): 0.384 | relative viability ([15]; first compound 0.3162 µM): 0.338 | relative viability ([15]; first compound 1 µM): 0.303 | relative viability ([16]; first compound 0.01 µM): 0.488 | relative viability ([16]; first compound 0.03162 µM): 0.448 | relative viability ([16]; first compound 0.1 µM): 0.443 | relative viability ([16]; first compound 0.3162 µM): 0.408 | relative viability ([16]; first compound 1 µM): 0.481 | relative viability ([17]; first compound 0.01 µM): 0.524 | relative viability ([17]; first compound 0.03162 µM): 0.539 | relative viability ([17]; first compound 0.1 µM): 0.532 | relative viability ([17]; first compound 0.3162 µM): 0.57 | relative viability ([17]; first compound 1 µM): 0.546 | relative viability ([18]; first compound 0.01 µM): 0.906 | relative viability ([18]; first compound 0.03162 µM): 1.01 | relative viability ([18]; first compound 0.1 µM): 0.993 | relative viability ([18]; first compound 0.3162 µM): 0.827 | relative viability ([18]; first compound 1 µM): 0.978 | relative viability ([19]; first compound 0.01 µM): 0.962 | relative viability ([19]; first compound 0.03162 µM): 0.993 | relative viability ([19]; first compound 0.1 µM): 0.97 | relative viability ([19]; first compound 0.3162 µM): 0.96 | relative viability ([19]; first compound 1 µM): 0.986 | relative viability ([20]; first compound 0.01 µM): 0.252 | relative viability ([20]; first compound 0.03162 µM): 0.224 | relative viability ([20]; first compound 0.1 µM): 0.248 | relative viability ([20]; first compound 0.3162 µM): 0.251 | relative viability ([20]; first compound 1 µM): 0.232 | relative viability ([21]; first compound 0.01 µM): 0.515 | relative viability ([21]; first compound 0.03162 µM): 0.434 | relative viability ([21]; first compound 0.1 µM): 0.475 | relative viability ([21]; first compound 0.3162 µM): 0.467 | relative viability ([21]; first compound 1 µM): 0.504
